How the values were obtained:
[1] = test system: four different human lymphoma cell lines; details: cited from earlier work
[2] = test system: P388 lymphocytic leukemia (PS system) cell line; details: cited from earlier work
[3] = synthetic Dolastatin 10; cited from earlier work
[4] = test system: HT-29 colon carcinoma cells; assay type: cell-based; details: HT-29 cells, 48 hours incubation, MTT; read-out: IC50 (concentration giving a T/C of 50% growth inhibition)
[5] = test system: Human breast tumors (MX-1); test: In vivo activity, MX-1 human breast tumor xenograft in athymic nude mice; details: subcutaneous injection, 10, 20 or 30 mg/kg, three doses per week, days 5-23
Method: Compounds of this invention were further tested in pre-clinical assays for in vivo activity which is indicative of clinical utility. Such assays were conducted with nude mice into which tumor tissue, preferably of human origin, had been transplanted (xenografted), as is well known in this field. Test compounds were evaluated for anti-tumor efficacy following administration to the xenograft-bearing mice.
Human breast tumors (MX-1) which had been grown in athymic nude mice were transplanted into new recipient mice, using tumor fragments which were about 50 mg in size. The day of transplantation was designated as day 0. The mice were divided into four groups of 5-10 mice each. An untreated group served as the control. Three groups were treated by subcutaneous injection of compound 1, with each group receiving three doses per week of 30, 20 or 10 mg/kg body weight. Doses were administered on days 5, 7, 9, 12, 14, 16, 19, 21 and 23 post post-implantation.
Tumor diameters and body weights were measured twice weekly. Tumor volumes were calculated using the diameters measured with Vernier calipers, and the formula
(length×width^2)/2=mm^3 of tumor volume
Mean tumor volumes are calculated for each treatment group, and T/C values determined for each group relative to the untreated control tumors.

| Molecule | inhibition of growth of human lymphoma cell lines [1] | growth inhibition of P388 cell line [2] | solubility in aqueous systems [3] | IC50 [4] | inhibition of tumor growth (tumor volume versus post-implantation time) [5] |
| --- | --- | --- | --- | --- | --- |
| Dolastatin 15 | effectively inhibit | inhibits the growth |  |  |  |
| Dolastatin 10 | effectively inhibit |  | poor solubility |  |  |
| CO[C@H](CC(=O)N1CCC[C@H]1C(=O)Nc1nccs1)[C@H](C(C)C)N(C)C(=O)[C@@H](NC(=O)[C@H](C(C)C)N(C)C)C(C)C [Compound 1, (3R,4S)-4-[N-(N,N-dimethyl-L-valyl-L-valyl)-N-methylamino]-3-methoxy-5-methyl-hexanoyl prolyl-thiazolyl(2)-amide] |  |  |  | 0.06 µM | significant dose-dependent inhibition of tumor growth |

Source: patent publication US5939527A, “Tetrapeptides as antitumor agents” (BASF Aktiengesellschaft, priority 1996, dated 1999)
